Source: patent US20230310427A1, “NEW THERAPEUTIC USE OF RILPIVIRINE” (UNIVERSITY OF SOUTH AUSTRALIA, priority 2020, published 2023)

What was measured:
[1] = system: expanded panel of 429 different kinases; experiment: Kinase profiling, expanded panel; type: biochemical; details: 1 µM
Experimental: (§1) The ability of compounds to inhibit kinases was measured using ADP-Glo^Tm assay kits (Promega, Madison, WI, United States of America) or externally using radioisotope based assays (Reaction Biology Corporation, Malvern, PA, United States of America and Eurofins discovery services, France). The ADP-Glo assay was performed as reported previously (Basnet SK et al., Mol Pharmacol 88(5):935-948, 2015).The assay plate was read for luminescence using Envision multi-label plate reader (PerkinElmer, Waltham, MA, United States of America). Half-maximal inhibition (IC50) values were determined from a plot of percent residual activity versus concentration of test compounds using GraphPad Prism software. Ki values were calculated from IC50 values using the Cheng-Prusoff equation: Ki= IC50/ [1 + ([ATP]/Km ATP)], where [ATP] is the ATP concentration used for the IC50 determination and Km ATP for each kinase is determined from an individual experiment.
In a subsequent kinase profiling experiment, using an expanded panel of 429 different kinases, the inhibitory activity of Rilpivirine was confirmed using a reduced concentration of 1 µM. […] The percent inhibition against Aurora A, PIM1, LYN and YES kinases were 86, 78, 77 and 83% respectively at the concentration of 1 µM of Rilpivirine. The other 424 kinases were inhibited by less than 70 % at this concentration.

[2] = system: cleavage of PARP in p53 WT A2780 cells; experiment: Western blot, PARP cleavage; type: cell-based; details: 48 hour treatments, various concentrations
Experimental: (§2) For Western blotting, cells (8×10^5) were seeded in a culture dish with 10 mL medium and incubated overnight at 37° C., 5% CO2. Untreated and compound-treated cells were lysed using phosphate lysis buffer and protease inhibitors. The protein concentration of each sample was determined by Bio-Rad DC™ protein assay (Bio-Rad Laboratories, Hercules, CA, United States of America). The protein was deactivated at 95° C. for 5 min and then resolved on 4-20% polyacrylamide gels by electrophoresis. Proteins were transferred to polyvinylidene difluoride (PDVF) membrane and blocked for 1 h with 10% skimmed milk (SM) in Tris-buffered saline and Tween (TBST). After adding primary antibody, the membranes were incubated overnight on a rocker in a 4° C. cold room. The following day, membranes were washed in TBST (4×20 min), incubated for at least 1 h at room temperature with the appropriate horseradish peroxidase conjugated secondary antibody. Following this, the blots were washed with TBST (4×20 min) again. The blots were then treated with Western blotting detection reagent and the band intensity was determined using a Bio-Rad ChemiDoc™ MP imaging system (Bio-Rad Laboratories). All the antibodies used for protein detection were from Cell Signaling Technology (Danvers, MA, United States of America). […]

[3] = system: cleaved PARP (poly (ADP-ribose) polymerase); experiment: Western blot of cell lysates, apoptosis markers; type: cell-based; details: increasing concentrations; data not shown
Experimental: as §2

bc1-2 = experiment: Western blot of cell lysates, apoptosis markers; type: cell-based; details: increasing concentrations; data not shown
Experimental: as §2

Jurkat cells = experiment: Apoptosis analysis (Annexin-V FITC/PI); type: cell-based; details: 48 hour treatment, various concentrations
Experimental: (§3) Instead of ethanol fixation, the cell number of each sample was counted, and the cells were diluted to 1×10^5 cells with 1 mL PBS in fresh FACS tubes. Cells were centrifuged and then re-suspended in 1 mL of cold PBS (whole step repeated twice). Pelleted cells were resuspended in 100 µL binding buffer, and subsequently 3 µL of Annexin V and 3 µL of PI were added to all tubes and incubated in the dark for 15 min at room temperature. Following the incubation period, 200 µL of 1 x binding buffer was added. Samples were assessed using a flow cytometer (Cytoflex) within 1 h of staining and data were analysed using Cytexpert software.

p53 WT A2780 cells = experiment: Apoptosis analysis (Annexin-V FITC/PI); type: cell-based; details: 48 hour treatments, various concentrations
Experimental: as §3

NB4 cells = experiment: Apoptosis analysis (Annexin-V FITC/PI); type: cell-based; details: 48 hour treatment, various concentrations
Experimental: as §3

HL-60 cells = experiment: Apoptosis analysis (Annexin-V FITC/PI); type: cell-based; details: 48 hour treatment, various concentrations
Experimental: as §3

JAK1 = target: T1, JAK1 (Homo sapiens, UniProt P23458); experiment: Kinase assay; type: biochemical; details: kinase inhibition profiling (FIG. 2), concentration of 10 µM
T1 construct: purchased Promega (ADP-Glo kits) or Reaction Biology Corporation / Eurofins discovery services (external)
Experimental: as §1

Aurora A kinase = target: T2, Aurora A kinase (Homo sapiens, UniProt O14965); experiment: Kinase assay; type: biochemical
T2 construct: purchased Promega (ADP-Glo kits) or Reaction Biology Corporation / Eurofins discovery services (external)
T2 sequence (O14965 1-403): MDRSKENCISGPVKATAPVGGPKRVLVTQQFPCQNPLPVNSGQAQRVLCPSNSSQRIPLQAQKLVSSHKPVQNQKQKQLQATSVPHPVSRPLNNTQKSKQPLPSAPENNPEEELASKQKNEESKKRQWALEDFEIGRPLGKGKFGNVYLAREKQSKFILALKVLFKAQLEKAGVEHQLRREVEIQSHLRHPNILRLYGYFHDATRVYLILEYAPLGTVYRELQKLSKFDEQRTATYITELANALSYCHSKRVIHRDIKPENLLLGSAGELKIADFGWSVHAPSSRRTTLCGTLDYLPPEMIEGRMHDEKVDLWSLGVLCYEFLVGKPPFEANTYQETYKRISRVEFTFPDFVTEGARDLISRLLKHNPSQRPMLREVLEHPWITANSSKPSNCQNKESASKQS
Experimental: as §1

PIM1 = target: T3, PIM1 (Homo sapiens, UniProt P11309); experiment: Kinase assay; type: biochemical
T3 construct: purchased Promega (ADP-Glo kits) or Reaction Biology Corporation / Eurofins discovery services (external)
Experimental: as §1

YES kinase = target: T4, YES kinase (Homo sapiens, UniProt P07947); experiment: Kinase assay; type: biochemical; details: expanded panel, read-out: percent inhibition
T4 construct: purchased Promega (ADP-Glo kits) or Reaction Biology Corporation / Eurofins discovery services (external)
Experimental: as §1

FLT3 = target: T5, FLT3 (Homo sapiens, UniProt P36888); experiment: Kinase assay; type: biochemical; details: kinase inhibition profiling (FIG. 2), concentration of 10 µM
T5 construct: purchased Promega (ADP-Glo kits) or Reaction Biology Corporation / Eurofins discovery services (external)
Experimental: as §1

Aurora B kinase = target: T6, Aurora B kinase (Homo sapiens, UniProt Q96GD4); experiment: Kinase assay; type: biochemical; details: kinase inhibition profiling (FIG. 2), concentration of 10 µM
T6 construct: purchased Promega (ADP-Glo kits) or Reaction Biology Corporation / Eurofins discovery services (external)
Experimental: as §1

A2780 cells = experiment: Colony formation assay; type: cell-based; details: data not shown
Experimental: A total of 1000-1500 cells/well were plated on a 6 well plate and allowed to adhere for 6-8 hours. Appropriate concentrations of Rilpivirine were added and then the cells were put back into the incubator for 7-14 days. The medium was changed every 3 days. After the incubation, the cells were washed with 1 ml PBS carefully. Cells were then fixed with 1 % Formaldehyde and stained with crystal violet. Colonies were counted with >50 cells by eye and images were taken using a camera fitted with microscope.

[4] = 1 µM, expanded panel, read-out: percent inhibition
[5] = kinase inhibition profiling (FIG. 2), concentration of 10 µM

T3 sequence (P11309 whole entry): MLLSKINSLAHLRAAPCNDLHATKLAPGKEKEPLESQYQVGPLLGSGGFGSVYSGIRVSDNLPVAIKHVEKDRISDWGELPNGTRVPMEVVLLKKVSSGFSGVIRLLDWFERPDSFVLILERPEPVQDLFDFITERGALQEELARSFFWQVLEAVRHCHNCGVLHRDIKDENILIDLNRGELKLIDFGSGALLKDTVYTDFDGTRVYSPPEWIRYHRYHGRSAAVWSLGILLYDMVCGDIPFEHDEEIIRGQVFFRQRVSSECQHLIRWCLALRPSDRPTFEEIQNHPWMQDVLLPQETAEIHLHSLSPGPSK
T4 sequence (P07947 whole entry): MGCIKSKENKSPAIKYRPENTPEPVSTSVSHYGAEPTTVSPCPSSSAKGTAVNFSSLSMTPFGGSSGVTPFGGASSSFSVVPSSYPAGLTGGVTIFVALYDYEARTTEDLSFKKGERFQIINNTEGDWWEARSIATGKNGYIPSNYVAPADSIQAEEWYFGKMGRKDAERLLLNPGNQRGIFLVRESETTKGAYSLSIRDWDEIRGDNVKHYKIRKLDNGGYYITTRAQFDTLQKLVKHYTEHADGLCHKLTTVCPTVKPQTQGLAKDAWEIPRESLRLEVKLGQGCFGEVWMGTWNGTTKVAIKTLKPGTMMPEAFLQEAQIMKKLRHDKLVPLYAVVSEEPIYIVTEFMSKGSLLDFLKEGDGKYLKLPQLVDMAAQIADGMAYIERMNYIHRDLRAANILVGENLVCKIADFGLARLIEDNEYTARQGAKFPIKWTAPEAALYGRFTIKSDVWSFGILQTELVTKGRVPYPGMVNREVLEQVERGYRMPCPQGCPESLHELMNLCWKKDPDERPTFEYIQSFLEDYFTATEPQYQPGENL
T1 sequence (P23458 whole entry): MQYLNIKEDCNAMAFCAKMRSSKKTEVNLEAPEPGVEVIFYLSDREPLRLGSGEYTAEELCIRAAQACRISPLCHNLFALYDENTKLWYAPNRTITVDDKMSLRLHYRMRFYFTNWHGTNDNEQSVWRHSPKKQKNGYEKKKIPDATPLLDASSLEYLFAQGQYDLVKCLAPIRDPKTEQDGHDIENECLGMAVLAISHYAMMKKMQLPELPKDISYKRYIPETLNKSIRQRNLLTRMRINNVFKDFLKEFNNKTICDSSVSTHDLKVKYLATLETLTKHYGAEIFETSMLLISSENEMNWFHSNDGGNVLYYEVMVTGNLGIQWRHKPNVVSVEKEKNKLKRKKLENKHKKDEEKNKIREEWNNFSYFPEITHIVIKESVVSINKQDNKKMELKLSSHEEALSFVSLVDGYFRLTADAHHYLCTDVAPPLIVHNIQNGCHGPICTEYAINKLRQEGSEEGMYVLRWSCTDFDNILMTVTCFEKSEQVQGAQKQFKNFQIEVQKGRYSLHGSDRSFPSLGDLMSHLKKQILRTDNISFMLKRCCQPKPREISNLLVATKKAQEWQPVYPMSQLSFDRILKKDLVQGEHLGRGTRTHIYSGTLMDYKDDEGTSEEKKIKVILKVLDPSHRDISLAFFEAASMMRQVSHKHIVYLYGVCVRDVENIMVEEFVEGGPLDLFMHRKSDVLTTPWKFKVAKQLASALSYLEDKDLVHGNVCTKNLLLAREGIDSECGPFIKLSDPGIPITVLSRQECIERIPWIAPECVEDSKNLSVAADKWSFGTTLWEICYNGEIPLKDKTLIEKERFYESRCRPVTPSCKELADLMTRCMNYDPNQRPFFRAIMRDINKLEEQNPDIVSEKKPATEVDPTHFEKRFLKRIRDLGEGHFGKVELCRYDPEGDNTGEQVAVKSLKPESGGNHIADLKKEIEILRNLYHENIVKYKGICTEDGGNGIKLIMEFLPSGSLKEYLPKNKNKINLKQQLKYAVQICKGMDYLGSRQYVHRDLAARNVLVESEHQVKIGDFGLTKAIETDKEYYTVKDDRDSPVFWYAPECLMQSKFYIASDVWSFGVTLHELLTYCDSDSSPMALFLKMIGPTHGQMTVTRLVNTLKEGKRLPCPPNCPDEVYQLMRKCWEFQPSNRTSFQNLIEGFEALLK
T6 sequence (Q96GD4 whole entry): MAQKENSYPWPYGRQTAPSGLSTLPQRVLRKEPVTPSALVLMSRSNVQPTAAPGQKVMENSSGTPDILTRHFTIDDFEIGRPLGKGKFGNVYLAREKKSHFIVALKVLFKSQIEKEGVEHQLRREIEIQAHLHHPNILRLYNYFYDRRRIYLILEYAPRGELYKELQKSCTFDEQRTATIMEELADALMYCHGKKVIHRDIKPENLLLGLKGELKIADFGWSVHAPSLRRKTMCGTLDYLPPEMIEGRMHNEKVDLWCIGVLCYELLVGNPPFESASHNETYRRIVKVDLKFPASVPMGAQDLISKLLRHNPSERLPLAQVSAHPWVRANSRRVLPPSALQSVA
T5 sequence (P36888 27-993): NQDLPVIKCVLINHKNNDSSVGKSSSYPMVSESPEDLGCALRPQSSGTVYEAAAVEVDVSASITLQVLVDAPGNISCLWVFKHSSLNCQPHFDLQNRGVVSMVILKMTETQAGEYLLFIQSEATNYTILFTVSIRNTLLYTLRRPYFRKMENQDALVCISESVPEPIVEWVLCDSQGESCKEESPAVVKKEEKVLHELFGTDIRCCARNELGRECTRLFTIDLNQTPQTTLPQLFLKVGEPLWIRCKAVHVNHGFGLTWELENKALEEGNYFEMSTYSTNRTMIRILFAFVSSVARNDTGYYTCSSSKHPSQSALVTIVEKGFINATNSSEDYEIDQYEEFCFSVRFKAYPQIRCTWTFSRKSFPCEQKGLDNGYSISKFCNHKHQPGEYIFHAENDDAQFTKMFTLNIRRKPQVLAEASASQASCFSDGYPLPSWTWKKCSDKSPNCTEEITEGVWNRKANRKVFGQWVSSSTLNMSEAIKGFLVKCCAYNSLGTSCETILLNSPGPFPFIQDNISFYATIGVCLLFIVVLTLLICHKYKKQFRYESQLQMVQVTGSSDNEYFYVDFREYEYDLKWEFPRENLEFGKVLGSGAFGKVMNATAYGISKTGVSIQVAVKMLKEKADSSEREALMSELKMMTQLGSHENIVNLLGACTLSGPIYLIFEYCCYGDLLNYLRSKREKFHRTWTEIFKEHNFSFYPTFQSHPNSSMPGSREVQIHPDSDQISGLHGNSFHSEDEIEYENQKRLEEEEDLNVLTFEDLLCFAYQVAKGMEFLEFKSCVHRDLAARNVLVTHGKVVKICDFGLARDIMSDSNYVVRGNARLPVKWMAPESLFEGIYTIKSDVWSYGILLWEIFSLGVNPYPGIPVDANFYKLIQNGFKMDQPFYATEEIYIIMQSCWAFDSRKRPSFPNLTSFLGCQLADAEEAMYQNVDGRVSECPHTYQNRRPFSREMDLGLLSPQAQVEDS

## Cc1cc(/C=C/C#N)cc(C)c1Nc1ccnc(Nc2ccc(C#N)cc2)n1 [Rilpivirine, 4-[[4-[4-[(E)-2-cyanoethenyl]-2,6-dimethylanilino]pyrimidin-2-yl]amino]benzonitrile]
[1]
  percent inhibition of the other 424 kinases: less than 70%
[1]; panel of 429 kinases
  kinase selectivity: selective inhibitor of Aurora A
[2]
  cleavage of PARP: apoptosis is associated with cleavage of PARP
[3]
  cleaved PARP in cell lysates: appearance in the cell lysates of cleaved PARP
bc1-2
  bc1-2 level in cell lysates: downregulation of bc1-2
Jurkat cells
  induction of apoptosis: induces apoptosis in all of these cell lines in a dose-dependent manner
p53 WT A2780 cells
  induction of apoptosis: induces apoptosis in this cell line in a dose-dependent manner
NB4 cells
  induction of apoptosis: induces apoptosis in all of these cell lines in a dose-dependent manner
HL-60 cells
  induction of apoptosis: induces apoptosis in all of these cell lines in a dose-dependent manner
JAK1
  inhibitory activity against JAK1: some inhibitory activity
Aurora A kinase; [4]
  inhibition at 1 µM: 86%
Aurora A kinase; cell free kinase assay
  Ki: 130 nM
Aurora A kinase; [5]
  inhibitory activity against Aurora A: potently inhibits
PIM1; [4]
  inhibition at 1 µM: 78%
PIM1; [5]
  inhibitory activity against PIM1: some inhibitory activity
YES kinase
  inhibition at 1 µM: 83%
FLT3
  inhibitory activity against FLT3: some inhibitory activity
Aurora B kinase
  inhibitory activity against Aurora B: some inhibitory activity
A2780 cells
  clonogenic survival: clear inhibition of clonogenic survival
